In patent publication US20180179524A1, “COMPOSITIONS AND METHODS FOR INHIBITING CELL PROLIFERATION” (President and Fellows of Harvard College, priority 2015, published 2018):

Tested on: luciferase-based reporter constructs in S2R+ cells
Experiment: Luciferase-based mutation reporter assay (sgRNA mutation efficiency)
Type: cell-based, Drosophila
Conditions: sgRNAs with no mismatches targeting luciferase-based reporter in S2R+ cells; mutation rate = 1/Firefly luciferase normalized to Renilla
Procedure: The luciferase reporter vector was constructed by PCR amplifying the metallothionein promoter from pMK33 and luciferase gene from pGL3 (Table 1) and combining these with annealed oligos containing a gRNA target site (Table 1 and Table 2) and a custom made cloning vector using Golden Gate assembly.
Luciferase assays were performed by transfecting S2R+ cells with the relevant pl018 plasmid, luciferase reporter and pRL-TK (Promega) (to allow normalization of transfection efficiencies between samples) in 96 well plates using Effectene Transfection Reagent (Qiagen) according to the manufacturer's recommendations. Twenty-four hours after transfection, CuSO4 was added to the cell media at a final concentration of 140 μM and cells were incubated for a further 16 hours.
Firefly and Renilla luciferase readings were taken using the Dual-Glo Luciferase Assay System (Promega) according to manufacturer's instructions and a SpectraMax Paradigm Multi-Mode Microplate Detection Platform (Molecular Devices).
Because the rate of mutations varies widely between different sgRNAs (25-27), whether efficiency could be predicted based on the sgRNA sequence was tested. 75 additional sgRNAs were generated, each targeting luciferase-based reporter constructs with no mismatches and tested mutation efficiency for each. Using this panel of sgRNAs and associated efficiencies, the presence or absence of a correlation between GC content and mutation rate was examined. […] Next, whether a more general sequence-based approach was tested for its ability to improve efficiency prediction. The nucleotide content of all 75 sgRNAs was examined, considering each position separately and generated a probability matrix linking nucleotide content with mutation rate (FIG. 1, panel B). This was then used to generate predicted efficiency scores based on sgRNA sequence. […] Note that sgRNAs targeting close to the 3′ end of genes or with apparent viability effects were not included in this analysis. Finally, predicted scores were generated for all sgRNA target sites in the Drosophila genome and annotated.

Substance | Mean efficiency
AAACAGAAGGTCTTCCCCAA: sgRNA targeting a luciferase-based reporter construct, no mismatches (chemistry not given here) | 0.3046
AAAGAGCTGCGGGCCGGGCG: sgRNA targeting a luciferase-based reporter construct, no mismatches (chemistry not given here) | 0.06954
AACGACATCACGGTCCATGC: sgRNA targeting a luciferase-based reporter construct, no mismatches (chemistry not given here) | 0.2424
AACTCAAAGACCCGCTTTCG: sgRNA targeting a luciferase-based reporter construct, no mismatches (chemistry not given here) | 0.1408
AAGATAAGTTCTCTCCTATT: sgRNA targeting a luciferase-based reporter construct, no mismatches (chemistry not given here) | 0.04594
AAGTAGGCTCTCCTGAATGG: sgRNA targeting a luciferase-based reporter construct, no mismatches (chemistry not given here) | 0.1224
ACCAGCATATGCCGGCCTGC: sgRNA targeting a luciferase-based reporter construct, no mismatches (chemistry not given here) | 0.767
ACCCTGTCCACTCATATATG: sgRNA targeting a luciferase-based reporter construct, no mismatches (chemistry not given here) | 0.4172
ACCGAAAGTCGCGCCGGACG: sgRNA targeting a luciferase-based reporter construct, no mismatches (chemistry not given here) | 0.2496
ACCGCCAAACGGACCGCTTA: sgRNA targeting a luciferase-based reporter construct, no mismatches (chemistry not given here) | 0.3105
ACGCGCACGGGTCTCACGCC: sgRNA targeting a luciferase-based reporter construct, no mismatches (chemistry not given here) | 0.3288
AGACTGGTTTCCACCCGCTC: sgRNA targeting a luciferase-based reporter construct, no mismatches (chemistry not given here) | 1.298
AGGGAGTCCGCATAGGCGGC: sgRNA targeting a luciferase-based reporter construct, no mismatches (chemistry not given here) | 0.1819
AGTCCTCACCGTGGGGCACC: sgRNA targeting a luciferase-based reporter construct, no mismatches (chemistry not given here) | 0.09069
ATAGTTCCCTCCATGCCCTT: sgRNA targeting a luciferase-based reporter construct, no mismatches (chemistry not given here) | 0.07786
ATATCGGAGTCGGCCCAACC: sgRNA targeting a luciferase-based reporter construct, no mismatches (chemistry not given here) | 0.4113
ATCTGACCTCCCGGCTAATT: sgRNA targeting a luciferase-based reporter construct, no mismatches (chemistry not given here) | 0.05737
ATCTGGTCAGGACGCAAAGC: sgRNA targeting a luciferase-based reporter construct, no mismatches (chemistry not given here) | 0.1406
ATCTTCCCGTCGACATAGCC: sgRNA targeting a luciferase-based reporter construct, no mismatches (chemistry not given here) | 0.1609
CAACCAACAGGTCCGGCCCC: sgRNA targeting a luciferase-based reporter construct, no mismatches (chemistry not given here) | 0.3833
CAAGCAAGTCCGGTCGGTTG: sgRNA targeting a luciferase-based reporter construct, no mismatches (chemistry not given here) | 0.3531
CAGCCTCTCCCTGCGGATGC: sgRNA targeting a luciferase-based reporter construct, no mismatches (chemistry not given here) | 0.2509

Substance | Mean efficiency
CAGGCATTGTGACGACGCGC: sgRNA targeting a luciferase-based reporter construct, no mismatches (chemistry not given here) | 0.1744
CCACCGCGATATATGGGCGA: sgRNA targeting a luciferase-based reporter construct, no mismatches (chemistry not given here) | 0.5711
CCAGTAACGTCAAAGCTAGG: sgRNA targeting a luciferase-based reporter construct, no mismatches (chemistry not given here) | 0.1068
CCGCCGTGTGCTGCGAATAC: sgRNA targeting a luciferase-based reporter construct, no mismatches (chemistry not given here) | 0.1661
CCGCGCCGAGGACTACCGCC: sgRNA targeting a luciferase-based reporter construct, no mismatches (chemistry not given here) | 0.4568
CCGTCGAAGAACCGCGCAAT: sgRNA targeting a luciferase-based reporter construct, no mismatches (chemistry not given here) | 1.029
CCTGGATGATACGCTGGCGC: sgRNA targeting a luciferase-based reporter construct, no mismatches (chemistry not given here) | 0.1807
CCTTCGCGAGCACCCGGAAA: sgRNA targeting a luciferase-based reporter construct, no mismatches (chemistry not given here) | 0.3812
CGAATTACTACGTAGAGCGG: sgRNA targeting a luciferase-based reporter construct, no mismatches (chemistry not given here) | 0.1117
CGACGTTCCTGGCTCAATTG: sgRNA targeting a luciferase-based reporter construct, no mismatches (chemistry not given here) | 0.9067
CGCCGGCACCGCGTCCCTAT: sgRNA targeting a luciferase-based reporter construct, no mismatches (chemistry not given here) | 0.2542
CGTCGTTCTCGCCACCGCGC: sgRNA targeting a luciferase-based reporter construct, no mismatches (chemistry not given here) | 0.1461
CTCACAGACGGCGCCCGGCG: sgRNA targeting a luciferase-based reporter construct, no mismatches (chemistry not given here) | 0.4741
CTGCCGTTCTTCAGAAATAT: sgRNA targeting a luciferase-based reporter construct, no mismatches (chemistry not given here) | 0.3101
CTGGGCCGGCGTGTCCGTTC: sgRNA targeting a luciferase-based reporter construct, no mismatches (chemistry not given here) | 0.4328
CTTCCGACCCTTCGTTAGCC: sgRNA targeting a luciferase-based reporter construct, no mismatches (chemistry not given here) | 0.1815
GAACTCCGACTAGATTATAT: sgRNA targeting a luciferase-based reporter construct, no mismatches (chemistry not given here) | 0.4012
GACAAAGGATACTCAAATCC: sgRNA targeting a luciferase-based reporter construct, no mismatches (chemistry not given here) | 0.05169
GACCGGATTCGCTACAACCC: sgRNA targeting a luciferase-based reporter construct, no mismatches (chemistry not given here) | 0.6963
GCACCCTGCACGAATTATTT: sgRNA targeting a luciferase-based reporter construct, no mismatches (chemistry not given here) | 0.2041
GCATGCCCACCTTATCGGCG: sgRNA targeting a luciferase-based reporter construct, no mismatches (chemistry not given here) | 0.1169
